US11572369B2, “Bicyclic pyridine compositions and methods of using the same for cancer therapy” (UNIVERSITY OF SOUTH CAROLINA, priority 2019, dated 2023)

How the values were obtained:
Test in all cases: KINOMEscan
Type in all cases: binding
Conditions in all cases: 2000 nM
PIK3C2G = target: T1, PIK3C2G (Homo sapiens, UniProt O75747)
T1 construct: DNA label (for qPCR read-out); purchased DiscoveRx (KINOMEscan scanMAX service)

TSSK1B = target: T2, TSSK1B (Homo sapiens, UniProt Q9BXA7)
T2 construct: DNA label (for qPCR read-out); purchased DiscoveRx (KINOMEscan scanMAX panel)

MERTK = target: T3, MERTK (Homo sapiens, UniProt Q12866)
T3 construct: purchased DiscoveRx (KINOMEscan scanMAX panel, service)

LKB1 = target: T4, LKB1 (Homo sapiens, UniProt Q15831)
T4 construct: purchased KINOMEscan (DiscoveRx) panel service

WNK2 = target: T5, WNK2 (Homo sapiens, UniProt Q9Y3S1)
T5 construct: purchased KINOMEscan (DiscoveRx) panel service

CLK1 = target: T6, CLK1 (Homo sapiens, UniProt P49759)
T6 construct: DNA label (for qPCR read-out); purchased DiscoveRx (KINOMEscan scanMAX service)

MEK3 = target: T7, MEK3 (Homo sapiens, UniProt P46734)
T7 construct: purchased DiscoveRx (KINOMEscan scanMAX panel, service)

ERK1 = target: T8, ERK1 (Homo sapiens, UniProt P27361)
T8 construct: DNA label (qPCR read-out); purchased DiscoveRx (KINOMEscan ScanMAX panel)

KIT(V559D) = target: T9, KIT(V559D) (Homo sapiens, UniProt P10721, V559D)
T9 construct: DNA label (for qPCR read-out); purchased DiscoveRx (KINOMEscan scanMAX panel)

MAP4K2 = MAP4K2 (Homo sapiens, UniProt Q12851)
PLK2 = target: T10, PLK2 (Homo sapiens, UniProt Q9NYY3)
T10 construct: purchased DiscoveRx (KINOMEscan scanMAX panel)

SBK1 = target: T11, SBK1 (Homo sapiens, UniProt Q52WX2)
T11 construct: purchased DiscoveRx (KINOMEscan scanMAX panel)

MAP4K5 = MAP4K5 (Homo sapiens, UniProt Q9Y4K4)
TIE2 = target: T12, TIE2 (Homo sapiens, UniProt Q02763)
T12 construct: DNA label (qPCR read-out); purchased KINOMEscan (DiscoveRx) ScanMAX panel

MARK4 = target: T13, MARK4 (Homo sapiens, UniProt Q96L34)
T13 construct: purchased DiscoveRx (KINOMEscan scanMAX panel, service)

CDK2 = target: T14, CDK2 (Homo sapiens, UniProt P24941)
T14 construct: purchased DiscoverX (KINOMEscan service)

CDK8 = target: T15, CDK8 (Homo sapiens, UniProt P49336)
T15 construct: DNA label (qPCR read-out); purchased DiscoverX (assay service)

DYRK2 = target: T16, DYRK2 (Homo sapiens, UniProt Q92630)
T16 construct: DNA label (qPCR read-out); purchased KINOMEscan (DiscoveRx) panel

MRCKB = target: T17, MRCKB (Homo sapiens, UniProt Q9Y5S2)
T17 construct: DNA label (qPCR read-out); purchased KINOMEscan scanMAX panel (DiscoveRx)

CSNK1G2 = target: T18, CSNK1G2 (Homo sapiens, UniProt P78368)
T18 construct: DNA label; purchased DiscoveRx (KINOMEscan scanMAX panel)

MKK7 = target: T19, MKK7 (Homo sapiens, UniProt O14733)
T19 construct: DNA label (qPCR read-out); purchased KINOMEscan scanMAX panel (DiscoveRx)

CDK7 = target: T20, CDK7 (Homo sapiens, UniProt P50613)
T20 construct: purchased DiscoverX (KINOMEscan service)

LYN = LYN (Homo sapiens, UniProt P07948)
ZAP70 = ZAP70 (Homo sapiens, UniProt P43403)
JNK3 = target: T21, JNK3 (Homo sapiens, UniProt P53779)
T21 construct: DNA label (for qPCR read-out); purchased DiscoveRx (KINOMEscan scanMAX panel)

CLK4 = target: T22, CLK4 (Homo sapiens, UniProt Q9HAZ1)
T22 construct: DNA label (for qPCR read-out); purchased DiscoveRx (KINOMEscan scanMAX service)

NEK4 = target: T23, NEK4 (Homo sapiens, UniProt P51957)
T23 construct: DNA label (qPCR read-out); purchased KINOMEscan (ScanMAX panel service)

TGFBR2 = target: T24, TGFBR2 (Homo sapiens, UniProt P37173)
T24 construct: DNA label (qPCR read-out); purchased KINOMEscan (DiscoveRx) ScanMAX panel

PIK3CD = target: T25, PIK3CD (Homo sapiens, UniProt O00329)
T25 construct: DNA label; purchased DiscoveRx (KINOMEscan scanMAX panel)

MET(Y1235D) = target: T26, MET(Y1235D) (Homo sapiens, UniProt P08581, Y1235D)
T26 construct: purchased DiscoveRx (KINOMEscan scanMAX panel, service)

PIP5K2C = target: T27, PIP5K2C (Homo sapiens, UniProt Q8TBX8)
T27 construct: DNA label (qPCR read-out); purchased KINOMEscan (DiscoveRx) panel

MST2 = target: T28, MST2 (Homo sapiens, UniProt Q13188)
T28 construct: DNA label (for qPCR read-out); purchased KINOMEscan scanMAX panel (DiscoveRx)

[1] = target: ABL1(Q252H)-nonphosphorylated (Homo sapiens, UniProt P00519, Q252H)
[2] = target: ABL1(H396P)-nonphosphorylated (Homo sapiens, UniProt P00519, H396P)
PRKG1 = target: T29, PRKG1 (Homo sapiens, UniProt Q13976)
T29 construct: purchased DiscoveRx (KINOMEscan scanMAX panel)

DYRK1B = target: T30, DYRK1B (Homo sapiens, UniProt Q9Y463)
T30 construct: DNA label (qPCR read-out); purchased KINOMEscan (DiscoveRx) panel

T18 sequence (P78368 whole entry): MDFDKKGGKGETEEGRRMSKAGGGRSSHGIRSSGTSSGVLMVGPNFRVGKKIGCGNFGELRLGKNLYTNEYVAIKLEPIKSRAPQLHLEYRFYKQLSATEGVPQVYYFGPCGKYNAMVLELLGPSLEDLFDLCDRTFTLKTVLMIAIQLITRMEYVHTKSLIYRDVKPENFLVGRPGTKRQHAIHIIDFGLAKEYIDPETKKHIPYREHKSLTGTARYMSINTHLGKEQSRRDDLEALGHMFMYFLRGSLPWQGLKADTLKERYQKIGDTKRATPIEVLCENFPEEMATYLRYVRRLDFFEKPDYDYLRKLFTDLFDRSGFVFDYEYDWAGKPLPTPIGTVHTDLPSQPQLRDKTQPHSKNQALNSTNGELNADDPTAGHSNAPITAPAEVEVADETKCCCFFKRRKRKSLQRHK
T5 sequence (Q9Y3S1 whole entry): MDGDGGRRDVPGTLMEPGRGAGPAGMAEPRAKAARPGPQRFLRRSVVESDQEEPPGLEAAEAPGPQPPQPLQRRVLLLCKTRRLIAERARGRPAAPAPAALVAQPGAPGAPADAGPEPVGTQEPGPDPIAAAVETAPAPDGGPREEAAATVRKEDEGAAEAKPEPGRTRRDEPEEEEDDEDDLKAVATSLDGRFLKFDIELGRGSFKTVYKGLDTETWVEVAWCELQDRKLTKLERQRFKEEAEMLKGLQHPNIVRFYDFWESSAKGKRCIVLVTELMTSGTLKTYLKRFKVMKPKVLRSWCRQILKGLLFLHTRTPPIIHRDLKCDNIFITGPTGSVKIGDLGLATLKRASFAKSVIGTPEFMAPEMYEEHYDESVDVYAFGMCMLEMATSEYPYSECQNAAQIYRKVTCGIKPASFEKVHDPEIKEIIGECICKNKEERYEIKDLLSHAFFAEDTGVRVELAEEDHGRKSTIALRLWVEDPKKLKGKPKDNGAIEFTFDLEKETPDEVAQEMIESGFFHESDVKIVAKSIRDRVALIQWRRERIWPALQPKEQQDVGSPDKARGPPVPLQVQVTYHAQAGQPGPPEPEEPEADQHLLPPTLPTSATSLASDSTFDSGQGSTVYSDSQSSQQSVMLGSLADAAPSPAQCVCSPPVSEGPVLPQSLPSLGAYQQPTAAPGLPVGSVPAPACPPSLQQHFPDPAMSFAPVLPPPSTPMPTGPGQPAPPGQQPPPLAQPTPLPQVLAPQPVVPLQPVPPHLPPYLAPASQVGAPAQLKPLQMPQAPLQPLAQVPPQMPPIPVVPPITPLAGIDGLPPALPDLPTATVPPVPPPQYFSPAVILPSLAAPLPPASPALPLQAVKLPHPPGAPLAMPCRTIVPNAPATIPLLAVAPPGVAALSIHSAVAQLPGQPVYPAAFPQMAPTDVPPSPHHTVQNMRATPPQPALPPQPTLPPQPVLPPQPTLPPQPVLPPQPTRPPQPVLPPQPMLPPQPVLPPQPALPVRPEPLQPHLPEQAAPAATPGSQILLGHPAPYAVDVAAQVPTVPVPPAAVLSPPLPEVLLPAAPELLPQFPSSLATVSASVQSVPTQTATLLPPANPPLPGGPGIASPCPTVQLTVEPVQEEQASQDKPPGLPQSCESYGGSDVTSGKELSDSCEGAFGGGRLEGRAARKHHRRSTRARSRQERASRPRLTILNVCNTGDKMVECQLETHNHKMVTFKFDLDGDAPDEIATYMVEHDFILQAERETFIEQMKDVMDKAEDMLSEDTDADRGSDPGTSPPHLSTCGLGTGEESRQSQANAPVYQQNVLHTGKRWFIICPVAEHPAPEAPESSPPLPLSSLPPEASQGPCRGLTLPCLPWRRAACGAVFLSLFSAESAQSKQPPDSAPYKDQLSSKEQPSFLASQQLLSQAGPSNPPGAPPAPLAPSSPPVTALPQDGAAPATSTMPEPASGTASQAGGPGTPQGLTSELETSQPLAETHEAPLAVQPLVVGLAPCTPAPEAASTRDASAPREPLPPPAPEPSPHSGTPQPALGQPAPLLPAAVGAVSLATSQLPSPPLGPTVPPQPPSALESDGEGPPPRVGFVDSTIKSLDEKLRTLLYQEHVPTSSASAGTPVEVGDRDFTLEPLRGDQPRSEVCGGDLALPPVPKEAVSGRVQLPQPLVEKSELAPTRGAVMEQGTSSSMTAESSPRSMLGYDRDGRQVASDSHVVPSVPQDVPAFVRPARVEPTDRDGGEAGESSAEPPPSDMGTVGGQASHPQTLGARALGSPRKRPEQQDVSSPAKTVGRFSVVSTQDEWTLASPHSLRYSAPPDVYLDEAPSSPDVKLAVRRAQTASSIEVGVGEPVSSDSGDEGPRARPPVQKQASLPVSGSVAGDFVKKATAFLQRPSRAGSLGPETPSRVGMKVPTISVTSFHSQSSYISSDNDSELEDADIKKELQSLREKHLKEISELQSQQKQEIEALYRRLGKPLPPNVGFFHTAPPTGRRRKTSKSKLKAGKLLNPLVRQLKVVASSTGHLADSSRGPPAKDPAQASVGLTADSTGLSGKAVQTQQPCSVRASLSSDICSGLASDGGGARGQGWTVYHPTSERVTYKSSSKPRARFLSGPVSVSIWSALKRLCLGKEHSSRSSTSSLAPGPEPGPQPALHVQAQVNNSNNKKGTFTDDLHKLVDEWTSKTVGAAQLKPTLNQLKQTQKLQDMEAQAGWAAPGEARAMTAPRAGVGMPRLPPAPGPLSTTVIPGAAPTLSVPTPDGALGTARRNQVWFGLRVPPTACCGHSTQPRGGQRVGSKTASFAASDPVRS
T11 sequence (Q52WX2 whole entry): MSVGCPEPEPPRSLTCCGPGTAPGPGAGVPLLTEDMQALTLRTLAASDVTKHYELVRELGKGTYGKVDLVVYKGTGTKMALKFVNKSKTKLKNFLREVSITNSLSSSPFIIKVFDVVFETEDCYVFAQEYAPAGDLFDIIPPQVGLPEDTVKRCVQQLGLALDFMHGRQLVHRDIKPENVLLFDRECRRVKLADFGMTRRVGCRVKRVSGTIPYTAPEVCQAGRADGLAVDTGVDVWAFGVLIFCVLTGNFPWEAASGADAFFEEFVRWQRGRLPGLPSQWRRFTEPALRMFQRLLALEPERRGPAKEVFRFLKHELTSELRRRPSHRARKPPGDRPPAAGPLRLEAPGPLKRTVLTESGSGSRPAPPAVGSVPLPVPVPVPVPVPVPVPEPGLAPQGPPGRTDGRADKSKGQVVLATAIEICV
Sequence of MAP4K5 (Q9Y4K4 whole entry): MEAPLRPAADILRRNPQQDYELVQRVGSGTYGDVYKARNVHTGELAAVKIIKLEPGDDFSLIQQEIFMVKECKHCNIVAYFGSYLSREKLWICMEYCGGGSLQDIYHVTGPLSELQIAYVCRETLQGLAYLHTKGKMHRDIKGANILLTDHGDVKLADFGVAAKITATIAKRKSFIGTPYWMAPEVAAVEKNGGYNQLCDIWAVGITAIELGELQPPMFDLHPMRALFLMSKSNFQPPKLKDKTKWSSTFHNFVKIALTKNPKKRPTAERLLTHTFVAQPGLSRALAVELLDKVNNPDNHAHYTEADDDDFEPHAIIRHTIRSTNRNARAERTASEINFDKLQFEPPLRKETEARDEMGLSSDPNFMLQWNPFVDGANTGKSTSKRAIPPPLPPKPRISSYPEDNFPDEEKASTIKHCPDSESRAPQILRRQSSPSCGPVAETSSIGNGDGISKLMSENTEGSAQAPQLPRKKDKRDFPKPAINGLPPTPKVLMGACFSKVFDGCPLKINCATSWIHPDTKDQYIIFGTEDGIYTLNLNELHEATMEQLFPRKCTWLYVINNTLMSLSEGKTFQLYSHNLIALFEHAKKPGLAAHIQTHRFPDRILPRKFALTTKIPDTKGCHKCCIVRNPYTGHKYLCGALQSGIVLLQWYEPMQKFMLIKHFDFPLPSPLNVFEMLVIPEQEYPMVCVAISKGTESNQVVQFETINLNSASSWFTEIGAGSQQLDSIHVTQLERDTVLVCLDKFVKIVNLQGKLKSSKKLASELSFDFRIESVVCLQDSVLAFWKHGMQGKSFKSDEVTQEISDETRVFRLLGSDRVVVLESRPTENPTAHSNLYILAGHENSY
T10 sequence (Q9NYY3 whole entry): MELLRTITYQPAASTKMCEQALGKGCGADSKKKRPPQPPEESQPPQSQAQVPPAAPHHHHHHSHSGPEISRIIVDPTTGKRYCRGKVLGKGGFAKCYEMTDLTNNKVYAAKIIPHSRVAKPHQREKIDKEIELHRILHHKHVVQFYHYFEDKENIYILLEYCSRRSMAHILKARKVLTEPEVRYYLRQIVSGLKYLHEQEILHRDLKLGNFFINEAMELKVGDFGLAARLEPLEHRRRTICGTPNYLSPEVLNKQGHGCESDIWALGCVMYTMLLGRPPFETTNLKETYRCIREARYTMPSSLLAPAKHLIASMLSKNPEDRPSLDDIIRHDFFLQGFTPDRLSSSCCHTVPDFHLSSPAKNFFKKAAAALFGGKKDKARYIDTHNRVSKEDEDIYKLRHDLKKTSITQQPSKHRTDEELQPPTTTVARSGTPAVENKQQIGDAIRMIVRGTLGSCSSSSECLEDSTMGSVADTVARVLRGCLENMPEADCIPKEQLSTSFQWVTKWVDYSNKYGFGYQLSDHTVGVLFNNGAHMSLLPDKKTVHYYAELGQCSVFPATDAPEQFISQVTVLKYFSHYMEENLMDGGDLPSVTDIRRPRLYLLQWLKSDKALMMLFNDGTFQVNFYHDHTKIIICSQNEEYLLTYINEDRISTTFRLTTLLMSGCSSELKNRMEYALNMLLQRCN
T27 sequence (Q8TBX8 whole entry): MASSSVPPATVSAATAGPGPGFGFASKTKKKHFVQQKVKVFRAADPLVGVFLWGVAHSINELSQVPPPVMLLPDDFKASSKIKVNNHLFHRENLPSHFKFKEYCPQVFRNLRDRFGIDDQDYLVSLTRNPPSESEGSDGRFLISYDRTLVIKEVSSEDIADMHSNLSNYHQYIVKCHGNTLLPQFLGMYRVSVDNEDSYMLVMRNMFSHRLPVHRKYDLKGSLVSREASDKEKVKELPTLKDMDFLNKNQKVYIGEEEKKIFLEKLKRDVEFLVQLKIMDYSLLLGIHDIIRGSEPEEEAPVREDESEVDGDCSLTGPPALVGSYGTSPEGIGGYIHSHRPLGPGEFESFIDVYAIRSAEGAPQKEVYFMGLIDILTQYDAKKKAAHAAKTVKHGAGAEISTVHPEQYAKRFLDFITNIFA

With `CN(C)C(=O)c1ccc(N2CCCN(c3ccnc4sc(C(N)=O)c(N)c34)CC2)cc1` [15u, 3-amino-4-(4-(4-(dimethylcarbamoyl)phenyl)-1,4-diazepan-1-yl)thieno[2,3-b]pyridine-2-carboxamide] the “% Ctrl” value (PIK3C2G) was 94 % Ctrl, the “% Ctrl” value (TSSK1B) was 80 % Ctrl and the “% Ctrl” value (MERTK) was 89 % Ctrl. The “% Ctrl” value (LKB1) was 100 % Ctrl, the “% Ctrl” value (WNK2) was 96 % Ctrl and the “% Ctrl” value (CLK1) was 88 % Ctrl. For the same molecule, the “% Ctrl” value (MEK3) was 68 % Ctrl, the “% Ctrl” value (ERK1) was 100 % Ctrl and the “% Ctrl” value (KIT(V559D)) was 98 % Ctrl. The “% Ctrl” value (MAP4K2) was 84 % Ctrl, the “% Ctrl” value (PLK2) was 100 % Ctrl and the “% Ctrl” value (SBK1) was 100 % Ctrl. The “% Ctrl” value (MAP4K5) was 100 % Ctrl, the “% Ctrl” value (TIE2) was 72 % Ctrl and the “% Ctrl” value (MARK4) was 100 % Ctrl. The “% Ctrl” value (CDK2) was 100 % Ctrl, the “% Ctrl” value (CDK8) was 2.6 % Ctrl and the “% Ctrl” value (DYRK2) was 100 % Ctrl. The “% Ctrl” value (MRCKB) was 96 % Ctrl, the “% Ctrl” value (CSNK1G2) was 77 % Ctrl and the “% Ctrl” value (MKK7) was 100 % Ctrl. For the same molecule, the “% Ctrl” value (CDK7) was 100 % Ctrl, the “% Ctrl” value (LYN) was 100 % Ctrl and the “% Ctrl” value (ZAP70) was 95 % Ctrl. For the same molecule, the “% Ctrl” value (JNK3) was 91 % Ctrl, the “% Ctrl” value (CLK4) was 59 % Ctrl and the “% Ctrl” value (NEK4) was 100 % Ctrl. The “% Ctrl” value (TGFBR2) was 100 % Ctrl, the “% Ctrl” value (PIK3CD) was 94 % Ctrl and the “% Ctrl” value (MET(Y1235D)) was 100 % Ctrl. For the same molecule, the “% Ctrl” value (PIP5K2C) was 80 % Ctrl, the “% Ctrl” value (MST2) was 100 % Ctrl and the “% Ctrl” value [1] was 94 % Ctrl. For the same molecule, the “% Ctrl” value [2] was 100 % Ctrl, the “% Ctrl” value (PRKG1) was 88 % Ctrl and the “% Ctrl” value (DYRK1B) was 69 % Ctrl.

With `[2H]C([2H])([2H])N(C(=O)c1ccc(N2CCCN(c3ccnc4sc(C(N)=O)c(N)c34)CC2)cc1)C([2H])([2H])[2H]` [15u_D6, 3-amino-4-(4-(4-(bis(methyl-d3)carbamoyl)phenyl)-1,4-diazepan-1-yl)thieno[2,3-b]pyridine-2-carboxamide] the “% Ctrl” value (PIK3C2G) was 82 % Ctrl, the “% Ctrl” value (TSSK1B) was 99 % Ctrl and the “% Ctrl” value (MERTK) was 100 % Ctrl. The “% Ctrl” value (LKB1) was 87 % Ctrl, the “% Ctrl” value (WNK2) was 94 % Ctrl and the “% Ctrl” value (CLK1) was 68 % Ctrl. The “% Ctrl” value (MEK3) was 47 % Ctrl, the “% Ctrl” value (ERK1) was 97 % Ctrl and the “% Ctrl” value (KIT(V559D)) was 91 % Ctrl. The “% Ctrl” value (MAP4K2) was 66 % Ctrl, the “% Ctrl” value (PLK2) was 86 % Ctrl and the “% Ctrl” value (SBK1) was 83 % Ctrl. The “% Ctrl” value (MAP4K5) was 97 % Ctrl, the “% Ctrl” value (TIE2) was 100 % Ctrl and the “% Ctrl” value (MARK4) was 98 % Ctrl. The “% Ctrl” value (CDK2) was 99 % Ctrl, the “% Ctrl” value (CDK8) was 0.25 % Ctrl and the “% Ctrl” value (DYRK2) was 97 % Ctrl. For the same molecule, the “% Ctrl” value (MRCKB) was 100 % Ctrl, the “% Ctrl” value (CSNK1G2) was 69 % Ctrl and the “% Ctrl” value (MKK7) was 85 % Ctrl. For the same molecule, the “% Ctrl” value (CDK7) was 78 % Ctrl, the “% Ctrl” value (LYN) was 98 % Ctrl and the “% Ctrl” value (ZAP70) was 87 % Ctrl. The “% Ctrl” value (JNK3) was 44 % Ctrl, the “% Ctrl” value (CLK4) was 66 % Ctrl and the “% Ctrl” value (NEK4) was 95 % Ctrl. The “% Ctrl” value (TGFBR2) was 100 % Ctrl, the “% Ctrl” value (PIK3CD) was 71 % Ctrl and the “% Ctrl” value (MET(Y1235D)) was 100 % Ctrl. The “% Ctrl” value (PIP5K2C) was 64 % Ctrl, the “% Ctrl” value (MST2) was 84 % Ctrl and the “% Ctrl” value [1] was 83 % Ctrl. For the same molecule, the “% Ctrl” value [2] was 76 % Ctrl, the “% Ctrl” value (PRKG1) was 100 % Ctrl and the “% Ctrl” value (DYRK1B) was 100 % Ctrl.
